Test results published in patent US20210121435A1, “METHODS FOR TREATING SEIZURES IN EPILEPSY WITH A COMPOSITION COMPRISING CANNABINOIDS” (MEDRELEAF CORP., priority 2019, published 2021).
Read-outs that look alike come from different tables or passages of the source.

Legend:
[1] = in vivo; cited from earlier work
[2] = Toxicity assessment of kindled rats before stimulation (Loscher ataxia scale); type: in vivo, rat; settings: IP
Protocol: Before each round of drug testing stimulation, the rats were assessed for motor toxicity using the Loscher ataxia scale. This scale is used to determine motor impairment. The scale rankings are as follows: Stage 1—slight ataxia in hind legs, no decrease in abdominal muscle tone; Stage 2—more pronounced ataxia, slight decrease in abdominal muscle tone, flat body position; Stage 3—increased ataxia, continued decrease in abdominal muscle tone, more pronounced flat body posture, splayed hind legs, and crawling during forward motion; Stage 4—marked ataxia, loss of balance during forward motion, loss of abdominal muscle tone, flat body posture, splayed hind legs, and dragging during forward motion; Stage 5—very marked ataxia, frequent loss of balance during forward motion, loss of abdominal muscle tone.

[3] = tested on: Amygdala kindled rats (generalized and focal seizures); experiment: Seizure suppression in amygdala kindled rats; type: in vivo, rat; settings: IP; for suppression of focal seizures: suppressed = absence of EEG seizure activity lasting more than 4 seconds, FIGS. 1B, 2B; for suppression of generalized seizures: suppressed = absence of stage 3 or higher seizure (Racine scale), FIGS. 1A, 2A
Protocol: Preclinical studies were performed to study the effects of CBD or THC alone, or CBD in combination with THC, on seizures. Amygdala kindled rats were used as a model for generalized and focal seizures in these studies.
Kindling Procedure: An insulated bipolar electrode was implanted in the right basolateral amygdala of male Sprague Dawley rats (50-55 days old). Two weeks following implantation, the rats began daily kindling. The stimulation used for kindling was a 1 second train of biphasic 60 Hz square wave pulses at an intensity of 400 micro-amps, once per day. Both the focal afterdischarge (AD) and convulsive behavior were monitored for a minimum of 30 seconds after stimulation or until an observed seizure ended. Rats were stimulated once daily until ten stage 5 Racine scale seizures have been generated, after which they are considered fully kindled (typically 3-4 weeks).
Seizure Scoring: The focal seizures were defined by observing the afterdischarge (AD) recorded by electroencephalogram (EEG) via the implanted electrode. The focal AD can last as long as 1-2 minutes post stimulation. The focal AD is not necessarily accompanied by a secondary generalized motor seizure, especially early in the kindling process. Early behavioural signs may include the cessation of behaviour or blinking. After sufficient kindling has been induced, generalized motor events of seizure generalization began to occur. These events were rated using the Racine scale. The stages are as follows: Stage 1—facial clonus; Stage 2—head nodding; Stage 3—forelimb clonus; Stage 4—forelimb clonus and rearing on hindlimbs; Stage 5—loss of postural control (rearing and following over).
Seizure Threshold Testing: Two days after the 10th stage 5 seizure was recorded, the animal's seizure threshold was tested using ascending series technique. The process was started at an intensity of 20 micro-amps, which was increased by 20 micro-amps every two minutes until an AD was produced. The seizure threshold is defined as the current needed to produce the AD.
Stability Testing: After seizure thresholds were determined, the animals underwent stability testing to confirm the reliability of the threshold. The animals were stimulated at 25% above the determined threshold 3 times per week for 2 weeks. If seizures were consistently evoked at this level of stimulation, the rat was considered stable. […]
The effects of: a) CBD alone (0, 20, 40, 80, 160, 320 mg/kg; 10 subjects per dose); b) THC alone (0, 5, 10, 20, 40, 80 mg/kg; 10 subjects per dose); or c) CBD+THC (15:1) (CBD dose of 0, 20, 40, 80, 160, 320 mg/kg; 10 subjects per dose), were tested. […] A generalized seizure was considered to be suppressed if there was an absence of stage 3 or higher seizure, assessed using the Racine scale. […]

[4] = cited from earlier work
[5] = Pharmacokinetics of orally administered CBD; type: in vivo, human; settings: oral; 4 to 5 times the half-life
Source text: The half-life of CBD, administered orally, may be about […]. A steady state is may be reached about 10 days after regular dosing begins (i.e., 4 to 5 times the half-life). As such, with a 4 week treatment period all patients may achieve a steady state of CBD blood concentration.

[6] = tested on: convulsive seizures; settings: participants with Dravet Syndrome and drug-resistant seizures; cited from earlier work
[7] = tested on: mice; settings: intraperitoneally or orally; cited from earlier work
[8] = tested on: seizures; settings: cited from earlier work; for median reduction (seizures): at 12 weeks
[9] = tested on: seizures; settings: of the 7 participants who received CBD; temporal-lobe epilepsy; cited from earlier work
[10] = tested on: seizures; settings: after 3 months of treatment; TSC and treatment-resistant epilepsy; cited from earlier work

CCCCCc1cc(O)c2c(c1)OC(C)(C)[C@@H]1CCC(C)=C[C@@H]21 [THC, Δ^9-tetrahydrocannabinol]
dose at which there may be psychotropic effects [1]: 10 mg
doses at which psychotoxicity was observed [2]: above 10 mg/kg
suppression of focal seizures [3]: suppress some generalized and focal seizures
suppression of generalized seizures [3]: suppress some generalized and focal seizures

C=C(C)[C@@H]1CCC(C)=C[C@H]1c1c(O)cc(CCCCC)cc1O [CBD, cannabidiol]
safety and tolerability in clinical trials ([4]; human, in vivo): safe and well tolerated across a wide dosage range
doses for which no significant adverse effects have been reported ([4]; p.o.): up to 1500 mg/day
time to steady state after regular dosing begins [5]: about 10 days
frequency of occurrence of convulsive seizures [6]: significantly reduced
patients who became seizure free [6]: about 5%
dose-response of therapeutic benefits (anti-inflammatory and anti-nociceptive) [7]: bell-shaped dose-response
doses with no observed toxic effects [2]: up to 320 mg/kg
median reduction (seizures) ([8]; patients with DS): 49.8%
participants free of seizures in the last four weeks of treatment ([8]; patients with DS): 4 participants
median reduction (seizures) ([8]; patients with LGS): 36.8%
participants free of seizures in the last four weeks of treatment ([8]; patients with LGS): 1 participant
participants seizure free during treatment [9]: 4
median percent change in total weekly seizure frequency [10]: −48.8%
suppression of focal seizures [3]: suppress some generalized and focal seizures
suppression of generalized seizures [3]: suppress some generalized and focal seizures
